Structures can show the parent of a compound that is named as a salt.
Key:
Recombinant human PARP = Recombinant human PARP (Homo sapiens, UniProt P09874); assay: PARP enzyme activity inhibitory action; details: PARP inhibitory activity IC50 (nM), 3H-NAD, activated DNA, 25° C. 15 min; average of 3 measurements
Sequence of Recombinant human PARP (P09874 whole entry): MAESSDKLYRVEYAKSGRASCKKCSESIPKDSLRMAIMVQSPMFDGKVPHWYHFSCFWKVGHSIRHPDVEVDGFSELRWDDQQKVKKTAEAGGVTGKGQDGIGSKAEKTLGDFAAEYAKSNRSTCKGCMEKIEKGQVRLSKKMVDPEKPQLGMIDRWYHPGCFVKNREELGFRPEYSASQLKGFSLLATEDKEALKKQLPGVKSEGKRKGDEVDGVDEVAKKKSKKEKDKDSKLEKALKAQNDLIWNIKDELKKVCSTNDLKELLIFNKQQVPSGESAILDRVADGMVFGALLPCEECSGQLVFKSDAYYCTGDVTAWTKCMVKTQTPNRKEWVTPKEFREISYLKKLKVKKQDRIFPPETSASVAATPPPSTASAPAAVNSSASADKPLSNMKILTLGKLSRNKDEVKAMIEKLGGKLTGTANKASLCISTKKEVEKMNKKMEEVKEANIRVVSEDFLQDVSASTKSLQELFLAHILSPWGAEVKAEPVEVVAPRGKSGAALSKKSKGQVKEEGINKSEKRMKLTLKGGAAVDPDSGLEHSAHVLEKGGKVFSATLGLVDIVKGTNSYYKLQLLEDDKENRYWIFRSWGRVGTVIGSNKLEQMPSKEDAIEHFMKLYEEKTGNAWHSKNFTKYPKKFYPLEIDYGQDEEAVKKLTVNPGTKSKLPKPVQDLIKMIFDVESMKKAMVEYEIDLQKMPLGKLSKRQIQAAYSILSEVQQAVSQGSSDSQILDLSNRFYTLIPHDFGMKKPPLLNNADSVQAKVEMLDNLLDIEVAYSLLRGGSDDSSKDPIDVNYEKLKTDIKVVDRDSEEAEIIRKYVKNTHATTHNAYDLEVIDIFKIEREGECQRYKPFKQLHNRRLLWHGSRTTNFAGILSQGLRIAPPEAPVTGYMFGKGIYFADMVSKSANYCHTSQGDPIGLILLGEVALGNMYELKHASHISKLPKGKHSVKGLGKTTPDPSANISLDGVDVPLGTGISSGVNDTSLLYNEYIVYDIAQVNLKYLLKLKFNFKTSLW
Method: After incubation at 25° C. for 15 min., the reaction was quenched with 20% trichloroacetic acid, and the resulting acid insoluble fraction was adsorbed on a GF/B filter. The filter was washed several times with 5% trichloroacetic acid, and the radiation dose on the filter was measured by liquid scintillation counter.

IC50 (Recombinant human PARP) | melting point | SMILES
26 nM | – | Cc1cccc2c(=O)[nH]c([C@@H]3CCN4CCCC4C3)cc12 (single isomer, unassigned) [Example 225, 5-methyl-3-(octahydroindolizin-7-yl)-2H-isoquinolin-1-one ¾ water adduct]
31 nM | – | Cc1cccc2c(=O)[nH]c([C@@H]3CCN4CCCC4C3)cc12 (single isomer, unassigned) [Example 226, 5-methyl-3-(octahydroindolizin-7-yl)-2H-isoquinolin-1-one ½ water adduct]
70 nM | 204 to 205 °C (dec.) | CN(C)C1CCN(c2cc3ccccc3c(=O)[nH]2)CC1 [Example 3, 3-(4-dimethylaminopiperidine-1-yl)-2H-isoquinolin-1-one]
42 nM | – | CN1CCN(c2cc3ccccc3c(=O)[nH]2)CC1CO (stereo not drawn) [Example 4, 3-(3-hydroxymethyl-4-methylpiperazin-1-yl)-2H-isoquinolin-1-one]
56 nM | – | COc1cccc2c(=O)[nH]c(N3CCN(C)CC3)cc12 [Example 18, 5-methoxy-3-(4-methylpiperazin-1-yl)-2H-isoquinolin-1-one]
25 nM | – | CN1CCN(c2cc3c(O)cccc3c(=O)[nH]2)CC1 [Example 19, 5-hydroxy-3-(4-methylpiperazin-1-yl)-2H-isoquinolin-1-one]
75 nM | 238 to 239 °C (dec.) | CN1CCN(c2cc3c(F)cccc3c(=O)[nH]2)CC1 [Example 20, 5-fluoro-3-(4-methylpiperazin-1-yl)-2H-isoquinolin-1-one]
82 nM | 230 to 231 °C (dec.) | CN1CCN(c2cc3c(Cl)cccc3c(=O)[nH]2)CC1 [Example 21, 5-chloro-3-(4-methylpiperazin-1-yl)-2H-isoquinolin-1-one]
96 nM | 240 to 241 °C (dec.) | CN1CCN(c2cc3c(Br)cccc3c(=O)[nH]2)CC1 [Example 22, 5-bromo-3-(4-methylpiperazin-1-yl)-2H-isoquinolin-1-one]
63 nM | – | CN(C)C1CCN(c2cc3c(F)cccc3c(=O)[nH]2)CC1 [Example 28, 5-fluoro-3-(4-dimethylaminopiperidin-1-yl)-2H-isoquinolin-1-one]
47 nM | – | CN(C)CCCc1cc2ccccc2c(=O)[nH]1 [Example 85, 3-(3-(dimethylamino)propyl)-2H-isoquinolin-1-one]
61 nM | – | O=c1[nH]c(C2CN3CCC2CC3)cc2ccccc12 (stereo not drawn) [Example 86, 3-(1-azabicyclo[2.2.2]octan-3-yl)-2H-isoquinolin-1-one]
44 nM | – | Cc1cccc2c(=O)[nH]c(C3CCNCC3)cc12 [Example 93, 3-(piperidin-4-yl)-5-methyl-2H-isoquinolin-1-one hydrochloride]
39 nM | – | Cc1cccc2c(=O)[nH]c(CCCN(C)C)nc12 [Example 145, 8-methyl-2-[3-(dimethylamino)propyl]-3H-quinazolin-4-one]
36 nM | – | Cc1cccc2c(=O)[nH]c(N3CCN(C)C(CO)C3)cc12 (stereo not drawn) [Example 153, 3-(3-hydroxymethyl-4-methylpiperazin-1-yl)-5-methyl-2H-isoquinolin-1-one]
– | 269 to 271 °C | CN1CCC(c2[nH]c(=O)c3ccccc3c2-c2ccc(F)cc2)CC1 [Example 164, 4-(4-fluorophenyl)-3-(1-methylpiperidin-4-yl)-2H-isoquinolin-1-one]
52 nM | – | Cc1cccc2c(=O)[nH]c(CCN3CCCCC3)nc12 [Example 165, 8-methyl-2-(2-piperidinoethyl)-3H-quinazolin-4-one]
– | 153 to 155 °C | COc1ccccc1-c1c(C2CCN(C)CC2)[nH]c(=O)c2ccccc12 [Example 167, 4-(2-methoxyphenyl)-3-(1-methylpiperidin-4-yl)-2H-isoquinolin-1-one]
– | 214 to 216 °C | Cc1cccc(-c2c(C3CCN(C)CC3)[nH]c(=O)c3ccccc23)c1 [Example 168, 4-(3-methylphenyl)-3-(1-methylpiperidin-4-yl)-2H-isoquinolin-1-one]
– | 249 to 251 °C | Cc1ccccc1-c1c(C2CCN(C)CC2)[nH]c(=O)c2ccccc12 [Example 169, 4-(2-methylphenyl)-3-(1-methylpiperidin-4-yl)-2H-isoquinolin-1-one]
– | 181 to 183 °C | COc1cccc(-c2c(C3CCN(C)CC3)[nH]c(=O)c3ccccc23)c1 [Example 170, 4-(3-methoxyphenyl)-3-(1-methylpiperidin-4-yl)-2H-isoquinolin-1-one]
– | 194 to 196 °C | COCOc1cccc2c(=O)[nH]c(C3CCN(C)CC3)cc12 [Example 171, 5-methoxymethyloxy-3-(1-methylpiperidin-4-yl)-2H-isoquinolin-1-one]
44 nM | – | Cc1cccc2c(=O)[nH]c(CCCN3CCCC3)nc12 [Example 176, 8-methyl-2-[3-(pyrrolidin-1-yl)propyl]-3H-quinazolin-4-one]
– | 216 to 218 °C | CN1CCC(c2cc3c(N(C)C)cccc3c(=O)[nH]2)CC1 [Example 180, 5-(dimethylamino)-3-(1-methylpiperidin-4-yl)-2H-isoquinolin-1-one]
– | 247 to 249 °C | CN1CCC(c2[nH]c(=O)c3ccccc3c2-c2ccccc2F)CC1 [Example 182, 4-(2-fluorophenyl)-3-(1-methylpiperidin-4-yl)-2H-isoquinolin-1-one]

IC50 (Recombinant human PARP) | melting point | SMILES
– | 110 to 112 °C | COCOc1cccc2c(=O)[nH]c(CCCN(C)C)cc12 [Example 185, 5-methoxymethyloxy-3-(3-dimethylaminopropyl)-2H-isoquinolin-1-one]
– | 109 to 111 °C | COCOc1cccc2c(=O)[nH]c(CCCCN(C)C)cc12 [Example 187, 5-methoxymethyloxy-3-(4-dimethylaminobutyl)-2H-isoquinolin-1-one]
– | 176 to 178 °C | O=c1[nH]c(C2CCCN(Cc3ccccc3)C2)cc2ccccc12 (stereo not drawn) [Example 191, 3-(1-benzylpiperidin-3-yl)-2H-isoquinolin-1-one]
– | 214 to 216 °C | CN1CCC=C(c2cc3ccccc3c(=O)[nH]2)C1 [Example 193, 3-(1-methyl-1,2,3,6-tetrahydropyridin-5-yl)-2H-isoquinolin-1-one]
– | > 120 °C (dec.) | O=c1[nH]c(N2CCNC(CO)C2)cc2ccccc12 (stereo not drawn) [Example 194, 3-(3-hydroxymethylpiperazin-1-yl)-2H-isoquinolin-1-one]
– | 152 to 154 °C | CCCN1CCN(c2cc3ccccc3c(=O)[nH]2)CC1CO (stereo not drawn) [Example 196, 3-(3-hydroxymethyl-4-propylpiperazin-1-yl)-2H-isoquinolin-1-one]
– | 176 to 177 °C | O=c1[nH]c(N2CCN(Cc3ccccc3)C(CO)C2)cc2ccccc12 (stereo not drawn) [Example 197, 3-(4-benzyl-3-hydroxymethylpiperazin-1-yl)-2H-isoquinolin-1-one]
– | > 230 °C (dec.) | O=c1[nH]c(N2CCNC(CO)C2)cc2c(Br)cccc12 (stereo not drawn) [Example 198, 5-bromo-3-(3-hydroxymethylpiperazin-1-yl)-2H-isoquinolin-1-one]
– | 200 to 202 °C | CN1CCN(c2cc3c(Br)cccc3c(=O)[nH]2)CC1CO (stereo not drawn) [Example 199, 5-bromo-3-(3-hydroxymethyl-4-methylpiperazin-1-yl)-2H-isoquinolin-1-one]
– | > 200 °C (dec.) | O=c1[nH]c(N2CCC(N3CCCCC3)CC2)cc2ccccc12 [Example 200, 3-(4-piperidinopiperidin-1-yl)-2H-isoquinolin-1-one]
– | 143 to 144 °C | O=c1[nH]c(N2CCCC(CO)C2)cc2ccccc12 (stereo not drawn) [Example 201, 3-(3-hydroxymethylpiperidin-1-yl)-2H-isoquinolin-1-one]
– | 187 to 188 °C | CN(C)C(=O)C1CCCN(c2cc3ccccc3c(=O)[nH]2)C1 (stereo not drawn) [Example 202, 3-(3-(dimethylcarbamoyl)piperidin-1-yl)-2H-isoquinolin-1-one]
– | 130 to 132 °C | CC(C)CN1CCN(c2cc3ccccc3c(=O)[nH]2)CC1CO (stereo not drawn) [Example 203, 3-(3-hydroxymethyl-4-isobutylpiperazin-1-yl)-2H-isoquinolin-1-one]
– | 141 to 143 °C | CN(C)CC1CCCN(c2cc3ccccc3c(=O)[nH]2)C1 (stereo not drawn) [Example 206, 3-(3-(dimethylaminomethyl)piperidin-1-yl)-2H-isoquinolin-1-one]
– | 200 to 202 °C | COCOc1ccc2cc(C3CCN(C)CC3)[nH]c(=O)c2c1 [Example 210, 7-methoxymethyloxy-3-(1-methylpiperidin-4-yl)-2H-isoquinolin-1-one]
26 nM | – | Cc1cccc2c(=O)[nH]c(CCN3CCCCC3)cc12 [Example 218, 5-methyl-3-[2-(piperidin-1-yl)ethyl]-2H-isoquinolin-1-one]
63 nM | – | O=c1[nH]c(CCN2CCCCC2)cc2ccccc12 [Example 219, 3-[2-(piperidin-1-yl)ethyl]-2H-isoquinolin-1-one]
77 nM | – | O=c1[nH]c(CCN2CCCC2)cc2ccccc12 [Example 220, 3-[2-(pyrrolidin-1-yl)ethyl]-2H-isoquinolin-1-one]
42 nM | – | Cc1cccc2c(=O)[nH]c(CCN3CCCC3)cc12 [Example 221, 5-methyl-3-[2-(pyrrolidin-1-yl)ethyl]-2H-isoquinolin-1-one]
36 nM | – | Cc1cccc2c(=O)[nH]c(CCCN3CCCC3)cc12 [Example 222, 5-methyl-3-[3-(pyrrolidin-1-yl)propyl-1-yl]-2H-isoquinolin-1-one]
72 nM | – | Cc1cccc2c(=O)[nH]c(CCCN3CCCCC3)cc12 [Example 228, 5-methyl-3-[3-(piperidin-1-yl)propyl]-2H-isoquinolin-1-one]
68 nM | – | Cc1cccc2c(=O)[nH]c(C3CCN(C)C3)cc12 (stereo not drawn) [Example 248, 5-methyl-3-(1-methylpyrrolidin-3-yl)-2H-isoquinolin-1-one]
5100 nM | – | O=c1[nH]c(N2CCCCC2)cc2ccccc12 [Example Y-3010, reference compound]
79 nM | – | O=c1[nH]c(N2CCN(CCO)CC2)cc2ccccc12 [Example Y-3079, reference compound]
240 nM | – | Cc1cccc2c(=O)[nH]c(N3CCN(C)CC3)nc12 [Pfizer, reference compound]

Reference: patent publication US20040176361A1, “Fused heterocyclic compound and medicinal use thereof” (priority 2001, published 2004)
